Assay results: patent US20210116454A1, “METHODS FOR TREATING A HEMATOLOGICAL CANCER AND THE USE OF COMPANION BIOMARKERS FOR 2-(2,6-DIOXOPIPERIDIN-3-YL)-4-((2-FLUORO-4-((3-MORPHOLINOAZETIDIN-1-YL)METHYL)BENZYL)AMINO)ISOINDOLINE-1,3-DIONE” (CELGENE CORPORATION, priority 2019, published 2021)
pIC50: −log10 of the molar value.

What was measured:
Format in all cases: cell-based
WSU-DLCL2 DoxoR = assay: Viable cells/apoptosis in doxorubicin-resistant and matching parental lines; details: Homo sapiens, WSUDLCL2, read-out: Doxorubicin IC50
Experimental: (§1) The activity of Compound 1 was also evaluated in cell lines with acquired resistance to doxorubicin (Table 4). Doxorubicin-resistant cell lines (DoxoR) were generated by culturing the parental cell lines in vitro with increasing concentrations of doxorubicin for a long period of time (˜9 to 18 months) until they were able to grow in the presence of a relatively high concentration of doxorubicin (1 μM). Matching parental (M-Parent) cells were generated by maintaining the parental cells in culture without treatment for the same amount of time (˜9 to 18 months). The growth-inhibitory effect of doxorubicin on parental cells and the corresponding resistant cells was evaluated by measuring the number of viable cells and extent of apoptosis by 7-AAD exclusion and Annexin V staining using flow cytometry.
(§2) The effects of Compound 1 on the viability of doxorubicin-resistant versus parental cell lines was determined (FIG. 2; Table 5).

SU-DHL-4 DoxoR = assay: as above; details: Homo sapiens; SU-DHL-4 DoxoR; read-out: Doxorubicin IC50
Experimental: as §1, §2

SU-DHL-4 M-Parental = assay: as above; details: Homo sapiens, read-out: Doxorubicin IC50
Experimental: as §1, §2

Oci-Ly10 DoxoR = assay: as above; details: Homo sapiens; Oci-Ly10 DoxoR; read-out: Doxorubicin IC50
Experimental: as §1, §2

U2932 M-Parental = assay: as above; details: Homo sapiens, read-out: Doxorubicin IC50
Experimental: as §1, §2

U2932 DoxoR = assay: as above; details: Homo sapiens; U2932 DoxoR; read-out: Doxorubicin IC50
Experimental: as §1, §2

WSU-DLCL2 M-Parental = assay: as above; details: Homo sapiens, WSUDLCL2, read-out: Doxorubicin IC50
Experimental: as §1, §2

Oci-Ly10 M-Parental = assay: as above; details: Homo sapiens; Oci-Ly10 M-Parental; read-out: Doxorubicin IC50
Experimental: as §1, §2

OCI-LY-7 = assay: 5-day viable cell number and apoptosis (7-AAD exclusion/Annexin V flow cytometry); details: Homo sapiens, OCI-Ly7; OCI-LY-7 cells (Table 3); read-out: IC50
Description: (§3) The DLBCL panel includes seven cell lines classified as activated B-cell (ABC) subtype, thirteen cell lines classified as the germinal center B-cell (GCB) subtype, and three cell lines classified as primary mediastinal B-cell lymphoma (PMBL). […] The translocation of MYC, BCL6, or BCL2 to an IG locus usually leads to high levels of mRNA and protein due to the active transcription driven by a constitutively active IG promoter. […] Expressions of CRBN protein and known substrates, Ikaros, Aiolos, and ZFP91 were also evaluated (FIG. 1, panels B and C).
(§4) The panel of cell lines were treated with increasing doses of compounds for five days, at which time the number of viable cells was measured and the amount of apoptosis was determined by 7-AAD exclusion and Annexin V staining using flow cytometry.

OCI-LY-3 = assay: as above; details: Homo sapiens, OCI-Ly3; OCI-LY-3 cells (Table 3)
Description: as §3, §4

SU-DHL-8 = assay: as above; details: Homo sapiens; SU-DHL-8 cells (Table 3); read-out: IC50
Description: as §3, §4

TMD8 = assay: as above; details: Homo sapiens; TMD8 cells (Table 3); read-out: IC50
Description: as §3, §4

SU-DHL-2 = assay: as above; details: Homo sapiens; SU-DHL-2 cells (Table 3); read-out: IC50
Description: as §3, §4

Farage = assay: as above; details: Farage cells (Table 3); read-out: IC50
Description: as §3, §4

OCI-Ly10 = assay: as above; details: Homo sapiens; OCI-Ly10 cells (Table 3); read-out: IC50
Description: as §3, §4

U2940 = assay: as above; details: Homo sapiens, U-2940; U2940 cells (Table 3); read-out: IC50
Description: as §3, §4

RIVA = assay: as above; details: RIVA cells (Table 3); read-out: IC50
Description: as §3, §4

WSU-DLCL2 = assay: as above; details: Homo sapiens, WSUDLCL2; WSU-DLCL2 cells (Table 3); read-out: IC50
Description: as §3, §4

RC-K8 = assay: as above; details: Homo sapiens, RCK8; RC-K8 cells (Table 3); read-out: IC50
Description: as §3, §4

pIC50 (OCI-LY-7): 5.30 | pIC50 (OCI-LY-3): 4.94 | pIC50 (SU-DHL-8): 6.22 | pIC50 (SU-DHL-2): 5.89 | pIC50 (OCI-Ly10): 5.52
SMILES: COc1cccc2c1C(=O)c1c(O)c3c(c(O)c1C2=O)C[C@@](O)(C(=O)CO)C[C@@H]3O[C@H]1C[C@H](N)[C@H](O)[C@H](C)O1 [Doxorubicin, reference compound]
pIC50 (WSU-DLCL2 DoxoR): 5.80 | pIC50 (SU-DHL-4 DoxoR): 5.82 | pIC50 (SU-DHL-4 M-Parental): 8.00 | pIC50 (Oci-Ly10 DoxoR): 5.85 | pIC50 (U2932 M-Parental): 8.00 | pIC50 (U2932 DoxoR): 5.97 | pIC50 (WSU-DLCL2 M-Parental): 8.00 | pIC50 (Oci-Ly10 M-Parental): 7.70 | pIC50 (TMD8): 6.15 | pIC50 (Farage): 5.92 | pIC50 (U2940): 5.70 | pIC50 (RIVA): 5.26 | pIC50 (WSU-DLCL2): 5.82 | pIC50 (RC-K8): 5.46
